Read-outs that look alike come from different tables or passages of the source.
Assays:
[1] = Pharmacokinetics of TET in blood after a single i.v. administration in normal and LPS-induced ALI mice; conditions: male, BALB/c, mouse, in vivo, 5 mg/kg; for AUC(0-inf) / AUC(0-t) / C0 / half-life / clearance / MRT last / Vd: iv, 5 mg/kg i.v., blood; for clearance: read-out: CL (in vivo CLblood) (converted); for MRT last: read-out: MRT(0-t)
Description: Twelve male BALB/c mice were randomly divided into two groups (n = 6 for each group). […]

[2] = In vitro experiments for fup, fu,mic and Rb/p used in the well-stirred model; format: in vitro ADME
Method: (3) CLint,scaled=CLint,app×45mg microsomes/g liver×g liver/kg body weight (4) CLh,blood=Q×fu,p/Rb/p×CLint/fu,mic/Q+CLint·fu,p/Rb·CLint/fu,mic

COc1ccc2cc1Oc1ccc(cc1)C[C@H]1c3cc(c(OC)cc3CCN1C)Oc1c(OC)c(OC)cc3c1[C@H](C2)N(C)CC3 [TET, Tetrandrine]
increased Vz, LPS-treated vs normal mice [1]: ~ 134%
AUC(0-inf) ([1]; LPS-treated mice): 65700 ± 17500 ng·h/mL
AUC(0-t) ([1]; LPS-treated mice): 44100 ± 8460 ng·h/mL
C0 ([1]; LPS-treated mice): 2300 ± 935 ng/mL
half-life ([1]; LPS-treated mice): 93.2 ± 26.4 h
clearance ([1]; LPS-treated mice): 1.35 mL/min/kg
MRT last ([1]; LPS-treated mice): 137 ± 40.4 h
Vd ([1]; LPS-treated mice, read-out: Vss): 10.5 ± 1.77 L/kg
Vd ([1]; LPS-treated mice, read-out: Vz): 10.3 ± 1.75 L/kg
AUC(0-inf) ([1]; normal mice): 29500 ± 3790 ng·h/mL
AUC(0-t) ([1]; normal mice): 26300 ± 3420 ng·h/mL
C0 ([1]; normal mice): 2270 ± 270 ng/mL
half-life ([1]; normal mice): 30.7 ± 5.21 h
clearance ([1]; normal mice): 2.87 mL/min/kg
MRT last ([1]; normal mice): 72.7 ± 6.4 h
Vd ([1]; normal mice, read-out: Vss): 7.71 ± 2.01 L/kg
Vd ([1]; normal mice, read-out: Vz): 12.5 ± 1.63 L/kg
Rb/p [2]: 2.39
fup [2]: 0.01
fraction unbound ([2]; obtained from in vitro experiments): 0.18

— paper PMC9655037, “Alternation of Organ-Specific Exposure in LPS-Induced Pneumonia Mice after the Inhalation of Tetrandrine Is Governed by Metabolizing Enzyme Suppression and Lysosomal Trapping” (International Journal of Molecular Sciences, 2022)
